Reference: patent EP0912534B1, “MUSCARINIC ANTAGONISTS” (SCHERING CORPORATION, priority 1996, dated 1998)
Like-named read-outs stand apart in the source and are kept apart here.

What was measured:
[1] = molecular target: T1, cloned human m1 muscarinic receptor (Homo sapiens, UniProt P11229); assay: Muscarinic binding activity (3H-QNB displacement), m1
T1 sequence (P11229 1-460): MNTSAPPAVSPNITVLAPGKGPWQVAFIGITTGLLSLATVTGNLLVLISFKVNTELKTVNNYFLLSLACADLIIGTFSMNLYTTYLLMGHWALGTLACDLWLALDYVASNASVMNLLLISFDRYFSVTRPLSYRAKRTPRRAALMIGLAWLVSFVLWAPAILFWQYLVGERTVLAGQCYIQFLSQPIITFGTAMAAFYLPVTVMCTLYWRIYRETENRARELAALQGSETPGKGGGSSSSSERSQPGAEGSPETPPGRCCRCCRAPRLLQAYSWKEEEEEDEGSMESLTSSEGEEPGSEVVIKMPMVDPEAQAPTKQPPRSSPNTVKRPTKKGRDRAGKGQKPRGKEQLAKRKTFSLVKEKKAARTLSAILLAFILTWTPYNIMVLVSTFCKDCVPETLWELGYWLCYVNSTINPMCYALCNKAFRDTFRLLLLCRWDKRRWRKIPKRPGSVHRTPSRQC

[2] = molecular target: T2, cloned human m2 muscarinic receptor (Homo sapiens, UniProt P08172); assay: Muscarinic binding activity (3H-QNB displacement), m2
T2 sequence (P08172 1-466): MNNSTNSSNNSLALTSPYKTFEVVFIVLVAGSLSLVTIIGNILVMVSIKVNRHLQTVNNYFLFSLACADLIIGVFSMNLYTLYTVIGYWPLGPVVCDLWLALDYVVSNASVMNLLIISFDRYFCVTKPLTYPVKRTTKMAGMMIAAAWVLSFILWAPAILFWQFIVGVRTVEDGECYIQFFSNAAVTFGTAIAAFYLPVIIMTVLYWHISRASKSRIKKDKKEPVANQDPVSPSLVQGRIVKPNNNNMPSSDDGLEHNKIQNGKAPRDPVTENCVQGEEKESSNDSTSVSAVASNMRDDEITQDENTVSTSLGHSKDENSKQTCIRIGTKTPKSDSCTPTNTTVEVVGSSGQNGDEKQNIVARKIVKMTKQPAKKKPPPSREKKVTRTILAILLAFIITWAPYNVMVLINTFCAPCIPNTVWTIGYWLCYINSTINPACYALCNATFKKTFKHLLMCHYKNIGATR

[3] = molecular target: T3, cloned human m4 muscarinic receptor (Homo sapiens, UniProt P08173); assay: Muscarinic binding activity (3H-QNB displacement), m4
T3 sequence (P08173 1-479): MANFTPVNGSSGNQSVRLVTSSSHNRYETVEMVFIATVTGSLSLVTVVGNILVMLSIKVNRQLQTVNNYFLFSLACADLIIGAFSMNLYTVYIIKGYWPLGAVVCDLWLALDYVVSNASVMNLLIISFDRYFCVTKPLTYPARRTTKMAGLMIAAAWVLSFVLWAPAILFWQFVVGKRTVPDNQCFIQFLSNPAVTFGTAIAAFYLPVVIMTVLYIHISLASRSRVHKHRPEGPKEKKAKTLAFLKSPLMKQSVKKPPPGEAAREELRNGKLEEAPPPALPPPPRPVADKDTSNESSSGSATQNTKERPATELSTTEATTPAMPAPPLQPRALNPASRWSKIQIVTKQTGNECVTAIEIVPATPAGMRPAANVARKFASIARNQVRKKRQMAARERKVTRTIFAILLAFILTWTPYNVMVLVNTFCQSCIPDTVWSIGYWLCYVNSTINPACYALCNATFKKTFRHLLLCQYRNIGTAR

[4] = system: Release of Acetyl Choline (ACh) from Striatum; assay: Microdialysis: release of acetylcholine from striatum of conscious rats; type: in vivo, male Sprague-Dawley Rats; details: 10 mg/kg peritoneal, 3 rats, Isomer B
Method: The skull was exposed and drilled through to the dura at a point 0.2 mm anterior and 3.0 mm lateral to the bregma. At these coordinates, a guide cannula was positioned at the outer edge of the dura through the drilled opening, lowered perpendicularly to a depth of 2.5 mm, and permanently secured with dental cement to bone screws. Following the surgery, rats were given ampicillin (40 mg/kg, ip) and individually housed in modified cages. A recovery period of approximately 3 to 7 days was allowed before the microdialysis procedure was undertaken. • Microdialysis: All of the equipment and instrumentation used to conduct in vivo microdialysis was obtained from Bioanalytical Systems, Inc. (BAS). The microdialysis procedure required the insertion through the guide cannula of a thin, needle-like perfusable probe (CMA/12.3 mm x 0.5 mm) to a depth of 3 mm in striatum beyond the end of the guide. The probe was connected beforehand with tubing to a microinjection pump (CMA-/100). Rats were collared and tethered, and, following probe insertion, were placed in a large clear plexiglass bowl with litter material and access to food and water. The probe was perfused at 2 µl/min with Ringer's buffer (NaCl 147 mM; KCI 3.0 mM; CaCl2 1.2 mM; MgCl2 1.0 mM) containing 5.5 mM glucose, 0.2 mM L-ascorbate, and 1 µM neostigmine bromide at pH 7.4. To achieve stable baseline readings, microdialysis was allowed to proceed for 90 minutes prior to the collection of fractions. Fractions (20 µl) were obtained at 10-minute intervals over a 3-hour period using a refrigerated collector (CMA/170 or 200). Following the collection of four to five baseline fractions, the drug or combination of drugs to be tested was administered to the animal. Once collection was complete, each rat was autopsied to determine how accurately the probe was placed. • Acetylcholine (ACh) analysis: The concentration of ACh in collected samples of microdialysate was determined using HPLC/electrochemical detection. Samples were auto-injected (Waters 712 Refrigerated Sample Processor) onto a polymeric analytical HPLC column (BAS, MF-6150) and eluted with 50 mM Na2HPO4, pH 8.5. To prevent bacterial growth, Kathon CG reagent (0.005%) (BAS) was included in the mobile phase. Eluate from the analytical column, containing separated ACh and choline, was then immediately passed through an immobilized enzyme reactor cartridge (BAS, MF-6151) coupled to the column outlet. The reactor contained both acetylcholinesterase and choline oxidase covalently bound to a polymeric backbone. […] Data acquisition was carried out using an IBM Model 70 computer equipped with a microchannel IEEE board. Integration and quantification of peaks were accomplished using "Maxima" chromatography software (Waters Corporation). Total run time per sample was 11 minutes at a flow rate of 1 ml/min. Retention times for acetylcholine and choline were 6.5 and 7.8 minutes respectively. To monitor and correct for possible changes in detector sensitivity during chromatography, ACh standards were included at the beginning, middle and end of each sample queue.
Increases in ACh levels are consistent with presynaptic m2 receptor antagonism.

[5] = membranes of transfected CHO cells, read-out: Ki m1
[6] = membranes of transfected CHO cells, read-out: Ki m2
[7] = membranes of transfected CHO cells, read-out: Ki m4

| Compound | Ki [1, 5] | Ki [2, 6] | Ki [3, 7] | also measured |
| --- | --- | --- | --- | --- |
| O=S(=O)(c1ccccc1)c1ccc2c(c1)CCC2N1CCN(CCO)CC1 (stereo not shown) [Compound 1] | 356 nM | 79 nM | 106 nM | – |
| c1cnc(Oc2ccc3c(c2)CCC3N2CCN(C3CCCCC3)CC2)nc1 (single isomer, unassigned) [Compound 11] | 314 nM | 88 nM | – | – |
| Nc1ccc(Oc2ccc3c(c2)OCCC3N2CCN(C3CCCCC3)CC2)cc1 (stereo not shown) [Compound 3] | 82 nM | 130 nM | 37 nM | – |
| c1cnc(Oc2ccc3c(c2)CCCC3N2CCN(C3CCCCC3)CC2)nc1 (stereo not shown) [Compound 5, 4-Cyclohexyl-1-piperazinyl-[6-[(2-pyrimidinyl)oxy]]-1,2,3,4-tetrahydronaphthalene] | 160 nM | 21 nM | 35 nM | – |
| c1cnc(Oc2ccc3c(c2)CC(CC2CCCCC2)C3N2CCN(C3CCCCC3)CC2)nc1 (stereo not shown) [Compound 12, 2-[[1-(4-Cyclohexyl-1-piperazinyl)-2-(cyclohexylmethyl)-2,3-dihydro-1H-inden-5-yl]oxy]pyrimidine] | 173 nM | 92 nM | – | – |
| CC(=O)Nc1ccc(Oc2ccc3c(c2)OCCC3N2CCN(C3CCCCC3)CC2)cc1 (stereo not shown) [Compound 4] | 223 nM | 224 nM | > 200 nM | – |
| Nc1ccc(Oc2ccc3c(c2)CCCC3N2CCN(C3CCCCC3)CC2)cc1 (stereo not shown) [Compound 7] | 105 nM | 26 nM | 21 nM | – |
| c1cnc(Oc2ccc3c(c2)CCC3N2CCN(C3CCCCC3)CC2)nc1 (single isomer, unassigned) [Compound 10] | 151 nM | 11.5 nM | 17 nM | – |
| O=[N+]([O-])c1ccc(Oc2ccc3c(c2)CCCC3N2CCN(C3CCCCC3)CC2)cc1 (stereo not shown) [Compound 6] | 633 nM | 96 nM | 77 nM | – |
| COc1ccc(S(=O)(=O)c2ccc3c(c2)CCC3N2CCC(N3CCCCC3)CC2)cc1 (stereo not shown) [Compound 13] | 67 nM | 17 nM | 33 nM | – |
| O=[N+]([O-])c1ccc(Oc2ccc3c(c2)OCCC3N2CCN(C3CCCCC3)CC2)cc1 (stereo not shown) [Compound 2, 1-Cyclohexyl-4-[7-[(4-nitrophenyl)oxy]-chroman-4-yl]-piperazine] | 42 nM | 27 nM | – | – |
| COc1ccc(S(=O)(=O)c2ccc3c(c2)CCC3N2CCN(C3CCCCC3)C[C@H]2C)cc1 (single isomer, unassigned) [Compound 15] | – | – | – | Ki ([1]; Ki m1, membranes of transfected CHO cells): 1.23 nM; Ki ([2]; Ki m2, membranes of transfected CHO cells): 0.11 nM; Ki ([3]; Ki m4, membranes of transfected CHO cells): 0.27 nM; Mean % of baseline ([4]; sample collection time 20 min (control, first baseline, before injection)): 98.61 % of baseline; Mean % of baseline ([4]; sample collection time 30 min (control, second baseline, before injection)): 93.87 % of baseline; Mean % of baseline ([4]; sample collection time 40 min (control, third baseline, before injection)): 102.42 % of baseline; Mean % of baseline ([4]; sample collection time 50 min (compounds injected at 50 minutes)): 103.86 % of baseline; Mean % of baseline ([4]; sample collection time 60 min, injected at 50 min): 102.14 % of baseline; Mean % of baseline ([4]; sample collection time 70 min, injected at 50 min): 175.31 % of baseline; Mean % of baseline ([4]; sample collection time 80 min, injected at 50 min): 278.67 % of baseline; Mean % of baseline ([4]; sample collection time 90 min, injected at 50 min): 266.94 % of baseline; Mean % of baseline ([4]; sample collection time 100 min, injected at 50 min): 245.19 % of baseline; Mean % of baseline ([4]; sample collection time 110 min, injected at 50 min): 217.34 % of baseline; Mean % of baseline ([4]; sample collection time 120 min, injected at 50 min): 222.39 % of baseline; Mean % of baseline ([4]; sample collection time 130 min, injected at 50 min): 205.69 % of baseline; Mean % of baseline ([4]; sample collection time 140 min, injected at 50 min): 188.49 % of baseline; Mean % of baseline ([4]; sample collection time 150 min, injected at 50 min): 189.79 % of baseline; Mean % of baseline ([4]; sample collection time 160 min, injected at 50 min): 184.27 % of baseline; Mean % of baseline ([4]; sample collection time 170 min, injected at 50 min): 189.27 % of baseline; Mean % of baseline ([4]; sample collection time 180 min, injected at 50 min): 189.86 % of baseline |
| c1cnc(Oc2ccc3c(c2)CCC3N2CCN(C3CCCCC3)CC2)nc1 (stereo not shown) [Compound 9] | 265 nM | 35 nM | – | – |
